The values below come from patent US20230135729A1, “COMPOUND WITH ANTI-SPORE ACTIVITY AND PHARMACEUTICAL COMPOSITION THEREOF” (priority 2020, published 2023).

Holding throughout (assay type): cell-based
Assay [1] has as its system spores of ATCC BBA1870 strain. Put plainly: Inhibition of germination of C. difficile spores (MIC), strain ATCC BBA1870. The note with it: strain 1870, sodium taurocholate as germinant, BHIS medium, 37° C., OD580 for 60 min, read-out: MIC (minimum concentration that completely inhibits spore germination). As for the experimental part: (§1) According to a method disclosed in “The Journal of Infectious Diseases. 2013; 207: 1498-504”, spores of ATCC BBA1870, ATCC 43255 and ATCC 630 strains were obtained by culture and purification, and stored at 4° C.
(§2) Spore preparation: the C. difficile spores stored at 4° C. were heat-activated for 30 min at 65° C., centrifuged at 9,400 g for 2 min, and washed three times to remove any self-germinating spores.
(§3) Control drug: three cholic acid derivatives, a compound CamSA, a compound 20β (prepared by the method of “Journal of Medicinal Chemistry. 2017, 60 (8): 3451-3471”), and a compound 12a (prepared by the method of “Journal of Medicinal Chemistry. 2018, 61, 6759-6778”), were used as control drugs.
(§4) Compound preparation: the compound of the present disclosure, and the positive control drugs CamSA, 20β, and 12a were dissolved in DMSO, to prepare a stock solution with a concentration of 10 mM (prepared for immediate use).
(§5) The detection was conducted in a 96-well cell culture plate at a constant temperature of 37° C.; a final volume of each well of the 96-well plate was […] and a buffer was the BHIS medium; 150 μl of spores and drugs were added to the well in advance, and 50 μl of 4 mg/ml sodium taurocholate was added; OD580 was detected every 1 min immediately using a microplate reader, for continuously 60 min. A germination agent control group and a non-germination group were set up; after the detection, a final OD value of each well was compared with an initial value, and compared with the germination agent group to calculate a germination rate and an inhibition rate. A formula for the germination rate was:
(§6) Inhibition rate=100%−germination rate.

In assay [2] the test system is spores of ATCC 43255 strain. Put plainly: Inhibition of germination of C. difficile spores (MIC), strain ATCC 43255. The conditions noted are these: strain 43255, sodium taurocholate as germinant, BHIS medium, 37° C., OD580 for 60 min, read-out: MIC (minimum concentration that completely inhibits spore germination). Here is the method:
as §1, §2, §3, §4, §5, §6

In assay [3] the test system is spores of ATCC 630 strain. Put plainly: Inhibition of germination of C. difficile spores (MIC), strain ATCC 630. The conditions noted are these: strain 630, sodium taurocholate as germinant, BHIS medium, 37° C., OD580 for 60 min, read-out: MIC (minimum concentration that completely inhibits spore germination). Here is the method:
as §1, §2, §3, §4, §5, §6

[4] abbreviates: Clostridioides difficile, ATCCBBA1870STRAIN, 1 h.
[5] abbreviates: Clostridioides difficile, ATCC43255, 1 h.
Where [6] appears, read: Clostridioides difficile, ATCC630, 1 h.

In brackets after ≈: the same amount, converted by molar mass. Where two headings read alike, the source gives them in different places.

As to `C[C@H](CCC(=O)Nc1cccc(S(=O)(=O)O)c1)[C@H]1CC[C@H]2[C@@H]3[C@H](O)C[C@@H]4C[C@H](O)CC[C@]4(C)[C@H]3C[C@H](O)[C@]12C` [CamSA, reference compound], the MIC in assay [1], in assay [2] and in assay [3] was more than 256 µM each time.

Take `C[C@H](CC(=O)NCC1CC1)[C@H]1CC[C@H]2[C@@H]3[C@H](O)C[C@@H]4C[C@H](O)CC[C@]4(C)[C@H]3CC[C@]12C` [Compound I-1]: the MIC in assay [1] (setting [4]), in assay [2] (setting [5]) and in assay [3] (setting [6]) was 32 µM (≈ 13.8 µg/mL) in each case.

Consider `C[C@H](CC(=O)NCc1ccco1)[C@H]1CC[C@H]2[C@@H]3[C@H](O)C[C@@H]4C[C@H](O)CC[C@]4(C)[C@H]3CC[C@]12C` [Compound I-2], for which the MIC in assay [1] (setting [4]) was determined as 16 µM (≈ 7.32 µg/mL); in assay [2] (setting [5]) it was 8 µM (≈ 3.66 µg/mL); in assay [3] (setting [6]), 8 µM (≈ 3.66 µg/mL).

On to `C[C@H](CC(=O)NCc1cccs1)[C@H]1CC[C@H]2[C@@H]3[C@H](O)C[C@@H]4C[C@H](O)CC[C@]4(C)[C@H]3CC[C@]12C` [Compound I-3], for which the MIC was 8 µM (≈ 3.79 µg/mL) in assay [1] (setting [4]), 8 µM (≈ 3.79 µg/mL) in assay [2] (setting [5]) and 4 µM (≈ 1.89 µg/mL) in assay [3] (setting [6]).

Regarding `C[C@H](CC(=O)NCc1ccccc1)[C@H]1CC[C@H]2[C@@H]3[C@H](O)C[C@@H]4C[C@H](O)CC[C@]4(C)[C@H]3CC[C@]12C` [Compound I-4], the MIC in assay [1] (setting [4]) came to 32 µM (≈ 15 µg/mL); in assay [2] (setting [5]), 16 µM (≈ 7.48 µg/mL); in assay [3] (setting [6]), 8 µM (≈ 3.74 µg/mL).

Regarding `C[C@H](CC(=O)NCc1cccnc1)[C@H]1CC[C@H]2[C@@H]3[C@H](O)C[C@@H]4C[C@H](O)CC[C@]4(C)[C@H]3CC[C@]12C` [Compound I-5], the figures for the MIC in assay [1] (setting [4]), in assay [2] (setting [5]) and in assay [3] (setting [6]) were 16 µM (≈ 7.5 µg/mL), 16 µM (≈ 7.5 µg/mL) and 32 µM (≈ 15 µg/mL), respectively.

Take `C[C@H](CC(=O)NCc1ccccn1)[C@H]1CC[C@H]2[C@@H]3[C@H](O)C[C@@H]4C[C@H](O)CC[C@]4(C)[C@H]3CC[C@]12C` [Compound I-6]: the MIC in assay [1] (setting [4]), in assay [2] (setting [5]) and in assay [3] (setting [6]) was 64 µM (≈ 30 µg/mL) each time.

Consider `C[C@H](CC(=O)NCc1nccs1)[C@H]1CC[C@H]2[C@@H]3[C@H](O)C[C@@H]4C[C@H](O)CC[C@]4(C)[C@H]3CC[C@]12C` [Compound I-7], for which the MIC in assay [1] (setting [4]), in assay [2] (setting [5]) and in assay [3] (setting [6]) was 16 µM (≈ 7.6 µg/mL) throughout.

With `CC(NC(=O)C[C@@H](C)[C@H]1CC[C@H]2[C@@H]3[C@H](O)C[C@@H]4C[C@H](O)CC[C@]4(C)[C@H]3CC[C@]12C)c1cccs1` (stereo partly drawn) [Compound I-8], the MIC came out at 4 µM (≈ 1.95 µg/mL) in assay [1] (setting [4]), 2 µM (≈ 0.976 µg/mL) in assay [2] (setting [5]) and 4 µM (≈ 1.95 µg/mL) in assay [3] (setting [6]).

On to `CC(NC(=O)C[C@@H](C)[C@H]1CC[C@H]2[C@@H]3[C@H](O)C[C@@H]4C[C@H](O)CC[C@]4(C)[C@H]3CC[C@]12C)c1ccccc1` (stereo partly drawn) [Compound I-9], for which the MIC in assay [1] (setting [4]), in assay [2] (setting [5]) and in assay [3] (setting [6]) was 8 µM (≈ 3.85 µg/mL) each time.

Turning to `C[C@H](CC(=O)NCC1CC1)[C@H]1CC[C@H]2[C@@H]3[C@@H](O)C[C@@H]4C[C@H](O)CC[C@]4(C)[C@H]3CC[C@]12C` [Compound I-10], the MIC in assay [1] (setting [4]), in assay [2] (setting [5]) and in assay [3] (setting [6]) was 32 µM (≈ 13.8 µg/mL) in each case.

For the compound `C[C@H](CC(=O)NCc1ccco1)[C@H]1CC[C@H]2[C@@H]3[C@@H](O)C[C@@H]4C[C@H](O)CC[C@]4(C)[C@H]3CC[C@]12C` [Compound I-11], the MIC in assay [1] (setting [4]), in assay [2] (setting [5]) and in assay [3] (setting [6]) was 64 µM (≈ 29.3 µg/mL) in each case.

Take `C[C@H](CC(=O)NCc1cccs1)[C@H]1CC[C@H]2[C@@H]3[C@@H](O)C[C@@H]4C[C@H](O)CC[C@]4(C)[C@H]3CC[C@]12C` [Compound I-12]: the MIC amounted to 128 µM (≈ 60.6 µg/mL) in assay [1] (setting [4]), 256 µM (≈ 121 µg/mL) in assay [2] (setting [5]) and 256 µM (≈ 121 µg/mL) in assay [3] (setting [6]).

Regarding `C[C@H](CC(=O)NCc1ccco1)[C@H]1CC[C@H]2[C@@H]3C(=O)C[C@@H]4C[C@H](O)CC[C@]4(C)[C@H]3CC[C@]12C` [Compound I-13], the MIC in assay [1] (setting [4]), in assay [2] (setting [5]) and in assay [3] (setting [6]) was 16 µM (≈ 7.29 µg/mL) each time.

In the case of `C[C@H](CC(=O)NCc1cccs1)[C@H]1CC[C@H]2[C@@H]3C(=O)C[C@@H]4C[C@H](O)CC[C@]4(C)[C@H]3CC[C@]12C` [Compound I-14], the MIC in assay [1] (setting [4]), in assay [2] (setting [5]) and in assay [3] (setting [6]) was 4 µM (≈ 1.89 µg/mL) in each case.

Regarding `C[C@H](CC(=O)NCc1nccs1)[C@H]1CC[C@H]2[C@@H]3C(=O)C[C@@H]4C[C@H](O)CC[C@]4(C)[C@H]3CC[C@]12C` [Compound I-15], the MIC in assay [1] (setting [4]) turned out to be 32 µM (≈ 15.1 µg/mL); in assay [2] (setting [5]), 64 µM (≈ 30.3 µg/mL); in assay [3] (setting [6]), 32 µM (≈ 15.1 µg/mL).

`C[C@H](CC(=O)NCc1ccccn1)[C@H]1CC[C@H]2[C@@H]3C(=O)C[C@@H]4C[C@H](O)CC[C@]4(C)[C@H]3CC[C@]12C` [Compound I-16]: the MIC in assay [1] (setting [4]), in assay [2] (setting [5]) and in assay [3] (setting [6]) was 256 µM (≈ 119 µg/mL) each time.

As for `C[C@H](CC(=O)NCc1ccco1)[C@H]1CC[C@H]2[C@@H]3[C@H](O)C[C@@H]4C[C@H](O)CC[C@]4(C)[C@H]3C[C@H](O)[C@]12C` [Compound I-17], the values for the MIC in assay [1] (setting [4]), in assay [2] (setting [5]) and in assay [3] (setting [6]) were 64 µM (≈ 30.3 µg/mL), 32 µM (≈ 15.2 µg/mL) and 32 µM (≈ 15.2 µg/mL), respectively.

As to `C[C@H](CC(=O)NCc1cccs1)[C@H]1CC[C@H]2[C@@H]3[C@H](O)C[C@@H]4C[C@H](O)CC[C@]4(C)[C@H]3C[C@H](O)[C@]12C` [Compound I-18], the MIC in assay [1] (setting [4]) came to 32 µM (≈ 15.7 µg/mL); in assay [2] (setting [5]), 8 µM (≈ 3.92 µg/mL); in assay [3] (setting [6]), 8 µM (≈ 3.92 µg/mL).

Consider `CC(NC(=O)C[C@@H](C)[C@H]1CC[C@H]2[C@@H]3[C@H](O)C[C@@H]4C[C@H](O)CC[C@]4(C)[C@H]3C[C@H](O)[C@]12C)c1ccccc1` (stereo partly drawn) [Compound I-19], for which the MIC in assay [1] (setting [4]) turned out to be 64 µM (≈ 31.9 µg/mL); in assay [2] (setting [5]), 32 µM (≈ 15.9 µg/mL); in assay [3] (setting [6]), 32 µM (≈ 15.9 µg/mL).

As for `C[C@H](CC(=O)NCc1cccs1)[C@H]1CC[C@H]2[C@@H]3C(=O)C[C@@H]4C[C@H](O)CC[C@]4(C)[C@H]3C[C@H](O)[C@]12C` [Compound I-20], the results for the MIC in assay [1] (setting [4]), in assay [2] (setting [5]) and in assay [3] (setting [6]) were 64 µM (≈ 31.2 µg/mL), 32 µM (≈ 15.6 µg/mL) and 32 µM (≈ 15.6 µg/mL), respectively.

Regarding `C[C@H](CC(=O)NCc1cccs1)[C@H]1CC[C@H]2[C@@H]3[C@H](O)[C@H](O)[C@@H]4C[C@H](O)CC[C@]4(C)[C@H]3CC[C@]12C` [Compound I-21], the MIC in assay [1] (setting [4]) amounted to 8 µM (≈ 3.92 µg/mL); in assay [2] (setting [5]) it was 8 µM (≈ 3.92 µg/mL); in assay [3] (setting [6]), 4 µM (≈ 1.96 µg/mL).

On to `CC(NC(=O)C[C@@H](C)[C@H]1CC[C@H]2[C@@H]3[C@H](O)[C@H](O)[C@@H]4C[C@H](O)CC[C@]4(C)[C@H]3CC[C@]12C)c1cccs1` (stereo partly drawn) [Compound I-22], for which the MIC in assay [1] (setting [4]), in assay [2] (setting [5]) and in assay [3] (setting [6]) was 8 µM (≈ 4.03 µg/mL) each time.
